Source: patent publication US10596152B2, “Selenium containing KGA/GDH dual inhibitors and the applications thereof” (HANGZHOU GAMMA BIOTECH CO., LTD., priority 2015, dated 2020)
pIC50: −log10 of the molar value. “Also recorded” adds a separate entry of the source. Read-outs that look alike come from different tables or passages of the source.

Key:
[1] = tested on: T24 (Bladder cancer); experiment: Inhibition of growth of tumor cells, T24 bladder cancer; format: cell-based
Protocol: (§1) Tumor cells (1000 cells per well) which were first treated with the corresponding compound for 3 days, and then EZMTT detection reagents were added measure the cell growth.

[2] = tested on: PC12 cells; experiment: Protection of PC12 nerve cells under OGD (hypoxia-ischemia); format: cell-based; conditions: for Protection of PC12 cells under OGD: OGD hypoxia-ischemia condition
Text: Then observed the growth of cellular neurite growth or neural synapse.

[3] = tested on: L2 (Normal cell); experiment: Growth inhibition of L2 normal cells; format: cell-based
Protocol: as §1

[4] = tested on: TrxR; conditions: reported; cited from earlier work
[5] = tested on: Caki; experiment: Inhibition of growth of tumor cells, Caki; format: cell-based; conditions: 72 h, read-out: IC50, Caki
Protocol: as §1

[6] = target: T1, KGA (Homo sapiens, UniProt O94925); experiment: Inhibition of KGA (glutaminase); format: biochemical
T1 sequence (O94925 55-669): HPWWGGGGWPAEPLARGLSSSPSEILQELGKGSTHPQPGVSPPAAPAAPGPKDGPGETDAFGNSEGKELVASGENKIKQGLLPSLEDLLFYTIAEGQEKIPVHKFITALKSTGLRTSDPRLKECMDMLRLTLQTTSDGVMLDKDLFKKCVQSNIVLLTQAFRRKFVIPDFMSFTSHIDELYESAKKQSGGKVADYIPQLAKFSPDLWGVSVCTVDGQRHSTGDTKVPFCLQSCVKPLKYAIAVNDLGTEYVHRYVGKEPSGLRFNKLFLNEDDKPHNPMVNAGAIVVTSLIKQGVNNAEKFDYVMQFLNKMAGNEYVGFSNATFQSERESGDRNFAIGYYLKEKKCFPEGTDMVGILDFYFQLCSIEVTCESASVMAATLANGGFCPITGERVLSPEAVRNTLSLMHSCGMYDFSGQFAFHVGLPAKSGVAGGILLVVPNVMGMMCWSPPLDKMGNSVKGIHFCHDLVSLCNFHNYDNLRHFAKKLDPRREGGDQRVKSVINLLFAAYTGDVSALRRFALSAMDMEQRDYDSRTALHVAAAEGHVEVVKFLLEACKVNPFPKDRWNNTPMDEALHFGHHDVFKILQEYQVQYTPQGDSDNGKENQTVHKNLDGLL

[7] = tested on: PC3; experiment: Inhibition of growth of tumor cells, PC3; format: cell-based; conditions: Homo sapiens, PC-3, 72 h, read-out: IC50, PC3
Protocol: as §1

[8] = target: T2, glutaminase (Homo sapiens, UniProt O94925); conditions: reported; read-out: Glutaminase inhibitor IC50; cited from earlier work
T2 sequence (O94925 55-669): T1 sequence (O94925 55-669)

[9] = tested on: JC82; experiment: Inhibition of growth of tumor cells, JC82; format: cell-based; conditions: 72 h, read-out: IC50, JC82
Protocol: as §1

[10] = tested on: normal cells; experiment: Toxicity to normal cells
[11] = tested on: PC12; experiment: Inhibition of growth of tumor cells, PC12; format: cell-based; conditions: Rattus norvegicus, PC-12, 72 h, read-out: IC50, PC12
Protocol: as §1

[12] = target: T1, KGA; experiment: Binding to immobilized KGA by molecular interaction apparatus (ForteBio); conditions: KGA immobilized on ForteBio chip
Text: We suspected that ebselen may not inhibit glutaminase. […] Therefore, based on the crystal structure of the allosteric site of glutaminase, we synthesized a series of new symmetric and asymmetric ebselen derivatives with the aim to make an ebselen derived KGA inhibitor. In the derivatives, the benzene ring at the 2-position of the original ebselen molecule was replaced by a straight-chain or branched alkyl substituent containing at least one carbon atom, or a long chain containing thioether, or a smaller cycloalkyl group, and the newly obtained derivatives are effective in binding to the allosteric site of glutaminase. […] Moreover, these inhibitors that bind the allosteric site of glutaminase had good selectivity and higher potency for inhibition of tumor cell growth (<100 nM), and no damage to normal cells (10 μM). These inhibitors also had significant activity in an immunodeficient mouse model with no toxicity. These inhibitors had good inhibitory activity for various types of glutamine-dependent cancer cells (80-90%), especially urinary system tumors. The binding diagram of GAC tetramers and BPTES is shown in FIG. 1, wherein “mark 1” is the active site of substrate binding; and “mark 2” is an allosteric site for BPTES binding.
Our Papers published are Anal. Chem. 2017, 89: 1689, ACS Chemical Biology, 2017, 12:3003

[13] = tested on: A549; experiment: Inhibition of growth of tumor cells, A549; format: cell-based; conditions: Homo sapiens, read-out: IC50, A549
Protocol: as §1

[14] = tested on: glutamine dependent cancer cell; conditions: reported; read-out: Inhibiting glutamine dependent cancer cell growth IC50; cited from earlier work
[15] = tested on: A549 tumor; experiment: Subcutaneous A549 tumor model in nude mice; format: in vivo; conditions: immune deficient mice, 1 mg/kg subcutaneously near tumor daily, 7 days, FIG. 5
Protocol: A549 tumor cells (1,000,000) were inoculated in nude mice, and the tumor size was 10 mm×10 mm in 24th to 27th day. Then compound hexane-(3,3′-dimethyl) thioether selen in PBS solution (200 μl) was injected subcutaneously every day near the tumor with the dosage of 1 mg/kg.

[16] = tested on: T24 tumor; experiment: Subcutaneous T24 tumor model in nude mice; format: in vivo; conditions: immune deficient mice, 1 mg/kg subcutaneously near tumor daily, 7 days, FIG. 6
Protocol: T24 tumor cells (1,000,000) were inoculated in nude mice, and the tumor size was 10 mm×10 mm in 24th to 27th day. Then compound hexane-(3,3′-dimethyl) thioether selen in PBS solution (200 μl) was injected subcutaneously every day near the tumor with the dosage of 1 mg/kg.

[17] = tested on: normal cells
[18] = bladder cancer cell line table, read-out: T24 (Bladder cancer) IC50
[19] = bladder cancer cell line table, read-out: L2 (Normal cell) IC50
[20] = Homo sapiens, T-24, 72 h, read-out: IC50, T24
[21] = 72 h, read-out: IC50, L2 (Normal)

1,6- tert butyl carbonate hexamethylendiamineselen
pIC50 [1, 18]: 5.00
Protection of PC12 cells under OGD [2]: <100 nM
pIC50 [3, 19]: < 5.00

O=c1c2ccccc2[se]n1-c1ccccc1 [Ebselen, 2-phenylbenzoisoselenazol-3-one, reference compound]
Inhibition of TrxR [4]: strong inhibitors of TrxR
pIC50 ([5]; Caki cells, 3 days treatment): < 5.00
Inhibition of KGA [6]: do not inhibit KGA
pIC50 ([7]; PC3 cells, 3 days treatment): < 5.00
pIC50 [8]: 8.05
pIC50 ([9]; JC82 cells, 3 days treatment): < 5.00
Toxicity to normal cells [10]: toxic to the normal cells
pIC50 ([1]; Homo sapiens, T-24, 72 h, T24 cells, 3 days treatment, comparison with parent nucleus, read-out: IC50, T24): < 5.00
pIC50 [1, 18]: < 5.00
Protection of PC12 cells under OGD [2]: 1000 nM
pIC50 ([11]; PC12 cells, 3 days treatment): < 5.00
Binding to KGA / glutaminase [12]: not bound to the KGA; also recorded: cannot directly combine toglutaminase
pIC50 ([13]; 72 h, A549 cells, 3 days treatment): < 5.00
pIC50 [14]: 4.70
pIC50 ([3]; 72 h, L2 normal cells, 3 days treatment, read-out: IC50, L2 (Normal)): < 5.00
pIC50 [3, 19]: < 5.00

O=c1c2ccccc2[se]n1CCCCCCn1[se]c2c(F)cccc2c1=O [Hexane - (2'-fluoro) selen, Hexane-(2′-fluoro) selen]
pIC50 ([1]; read-out: T24 (Bladder cancer) IC50): 6.70
Protection of PC12 cells under OGD [2]: <100 nM
pIC50 ([3]; read-out: L2 (Normal cell) IC50): < 5.00

O=c1c2c(F)cccc2[se]n1CCCCCCn1[se]c2cccc(F)c2c1=O [Hexane-(2,2'-difluoro) selen, Hexane-(2,2′-difluoro) selen]
pIC50 [5]: 6.00
pIC50 [7]: 5.70
pIC50 [9]: 5.70
pIC50 [1, 20]: 8.00
pIC50 [11]: 5.30
pIC50 ([13]; A549, 72 h): 6.30
pIC50 [3, 21]: < 5.00

Cc1cccc2[se]n(CCCCCCn3[se]c4cccc(C)c4c3=O)c(=O)c12 [Hexane-(3,3'-dimethyl) selen, Hexane-(3,3′-dimethyl) selen]
pIC50 [5]: 6.00
pIC50 [7]: 5.70
pIC50 [9]: 5.30
pIC50 [1, 20]: 6.70
pIC50 [11]: 5.30
Binding to KGA / glutaminase [12]: distinct levels of combination with KGA enzyme
pIC50 ([13]; A549, 72 h): 6.30
pIC50 [3, 21]: < 5.00

O=c1c2ccccc2[se]n1CCCSCCCn1[se]c2ccccc2c1=O [Thioether selen]
pIC50 [5]: 6.00
pIC50 [7]: 5.70
pIC50 [9]: 5.30
pIC50 [1, 20]: 6.30
Inhibition of growth of A549 tumor [15]: inhibition of the growth of the A549 tumor
Protection of PC12 neuronal cells under OGD condition ([2]; words, FIG. 7): protection of PC12 neuronal cells
Inhibition of growth of T24 tumor [16]: inhibition of the growth of the T24 tumor cells
pIC50 [11]: 5.30
pIC50 ([13]; A549, 72 h): 6.30
pIC50 [3, 21]: < 5.00

O=c1c2ccccc2[se]n1CCn1[se]c2ccccc2c1=O [ethylselen]
Inhibition of TrxR [4]: strong inhibitors of TrxR
Toxicity to normal cells [17]: toxic to the normal cells
Inhibition of KGA [6]: do not inhibit KGA
